This is an account of results in ChEMBL document CHEMBL1773003.

SMILES strings stand for the structures. Calls of active or inactive are those of the source. The rule behind the calls is not given here.

For series [1], the target named is Matrix protein 2 (Influenza A virus) (UniProt P06821). The series is classed as cell-based. The settings on record: Influenza A virus (A/udorn/1972(H3N2)); Oocyte; 100 uM.
In a further series the test system is MDCK. Nature of the series: Cytotoxicity against MDCK cells after 72 hrs by MTS assay. Format: cell-based, Canis lupus familiaris. To be noted: dog. On the technique in general: Formazan colour is commonly taken as a measure of viable cells.
In series [2] the test system is Influenza A virus. Nature of the series: Antiviral activity against Influenza A virus (A/Udorn/72) expressing wild-type matrix protein 2 infected in MDCK cells assessed as inhibition of plaque formation at 5 uM measured after 2 days. The series is classed as functional, organism-based. The settings on record: Influenza A virus (A/udorn/1972(H3N2)).
Another series addresses Matrix protein 2 (Influenza A virus, UniProt P06821). Format: cell-based, Influenza A virus (A/udorn/1972(H3N2)), Oocyte.
Series [3] can be described thus: Binding affinity to Influenza A virus (A/Udorn/72) transmembrane domain of matrix protein 2 (22 to 46) at pH 7.4 by circular dichroism analysis. Also noted: species or system Influenza A virus (A/udorn/1972(H3N2)). (Circular dichroism is the unequal absorption of left and right circularly polarised light.)
For series [4], the system named is Influenza A virus. Nature of the series: Inhibition of Influenza A virus matrix protein 2. To be noted: concentration not given here.

Chain of Matrix protein 2 (Influenza A virus) (P06821 whole entry): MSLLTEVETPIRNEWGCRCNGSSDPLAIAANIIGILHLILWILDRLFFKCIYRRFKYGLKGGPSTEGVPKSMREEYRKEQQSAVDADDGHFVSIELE
Chain of Matrix protein 2 (P06821 whole entry, the tested form may be a part): as the sequence (P06821 whole entry) above

By inhibition is commonly meant the share of the control response that was lost under treatment. A higher inhibition goes with a strong effect. Broadly, the CC50 is the concentration giving 50% cytotoxicity. High values mean lower toxicity to the cells, low ones greater toxicity to the cells. For `CCN(CC)C12C3CCC4C3C3C(CCC31)C42`, the inhibition in series [1] was 0%. The CC50 with MDCK was 119 µM.

Turning to `NCC12C3CCC4C3C3C(CCC31)C42`, the inhibition in series [1] turned out to be 12.8%. The 50% cytotoxic concentration (CC50) with MDCK came to 12 µM.

`CC12CC3CC1(C)CC3(N)C2` returned an inhibition in series [1] of 93.6%. In addition, the outcome in the series with Influenza A virus [2] was Active. The molecule further returned a 50% cytotoxic concentration (CC50) with MDCK greater than 500 µM.

The term IC50 denotes the concentration at which inhibition is half-maximal. A low value points to inhibition by little substance. A word on the Kd: it is the equilibrium constant for the complex coming apart. On to `NC12CC3CC(CC(C3)O1)C2`, for which, in series [1], the inhibition was found to be 88.2%. The IC50 against Matrix protein 2 was 29.2 µM. The same molecule showed a Kd in series [3] of 91.6 µM. This molecule yielded a CC50 in the series with MDCK greater than 500 µM.

Regarding `NC12CC3CC(CC(C3)C1)C2` [AMANTADINE], the inhibition in series [1] is 91%; with Influenza A virus [4] it was 85%. Also, the result with Influenza A virus [2] was Active.

`CNCC12C3CCC4C3C3C(CCC31)C42` had an inhibition in series [1] of 14.7%. Moreover, the midpoint of cytotoxicity in the series on MDCK, the CC50, lay at 224 µM.

As to `CNC12CC3CC(CC(C3)O1)C2`, in series [1], the inhibition came to 91.7%. This molecule also gave an IC50 against Matrix protein 2 of 22.9 µM. Moreover, in the series on MDCK, the half-maximal cytotoxic concentration (CC50) is greater than 500 µM.

Molecule `C1C2C1C1C3C4C5C6CC6C4C14CNCC54C23` (stereo unspecified) came in with an inhibition in series [1] of 86.5%. Moreover, the outcome in the series on Influenza A virus [2] was Active. The molecule further registered a Kd in series [3] of 232 µM. In addition, half-maximal cytotoxicity with MDCK (CC50) was put at 61 µM.

In turn, `CC(=N)NC12C3CCC4C3C3C(CCC31)C42` gave an inhibition in series [1] of 9.3%. Further, the CC50 in the series with MDCK is greater than 500 µM.

Take `CNCC12CC3CC(CC1C3)C2`: the inhibition in series [1] is 92.2%. The IC50 at Matrix protein 2 turned out to be 17.1 µM. The result with Influenza A virus [2] was Active. In the series on MDCK, the CC50 was less than 19.4 µM.

Turning to `CC(N)C12CC3CC(CC1C3)C2` (racemic), the inhibition in series [1] was 93.2%. The molecule also yielded an IC50 against Matrix protein 2 of 12.7 µM. Moreover, the outcome in the series on Influenza A virus [2] was Active. In the series on MDCK, half-maximal cytotoxicity (CC50) was put at 256 µM.

As for `NCC12CC3CC(CC1C3)C2`, in series [1], the inhibition amounted to 97.1%. The molecule further showed an IC50 at Matrix protein 2 of 7.1 µM. The result in the series on Influenza A virus [2] was Active. In addition, the 50% cytotoxic concentration (CC50) with MDCK worked out at 357 µM.

Molecule `NC(N)=NCC12CC3CC(CC1C3)C2` had an IC50 at Matrix protein 2 of 2.4 µM. Also, the CC50 in the series on MDCK is 10.5 µM.

The molecule `C1=CC2C3C4C5C=CC4C24CNCC54C13` displayed an IC50 against Matrix protein 2 of 33.5 µM. Further, the dissociation constant Kd in series [3] was found to be 74.9 µM. Moreover, in the series with MDCK, the 50% cytotoxic concentration (CC50) was greater than 500 µM.

Consider `NC12C3CCC4C3C3C(CCC31)C42`, for which, in series [1], the inhibition was determined as 4.8%. This molecule displayed a CC50 in the series with MDCK greater than 500 µM.

As to `C1CC2C3C4C5CCC4C24CNCC54C13`, in series [1], the inhibition was 39.7%.

Take `CC12CC3CC1(C)CC3(CN)C2`: in series [1], the inhibition was 97.3%. Besides, the IC50 at Matrix protein 2 was 7.2 µM. For the same molecule, the outcome with Influenza A virus [2] was Active. The same molecule returned a CC50 in the series on MDCK of 79 µM.

Molecule `N=C(N)NCC12CC3CC(CC1C3)C2` had an inhibition in series [1] of 97.2%. Also, the outcome in the series with Influenza A virus [2] was Active.
